Each compound was assayed on Spontaneously hypertensive rats (SHR) (assay: Acute Efficacy in Spontaneously Hypertensive Rats (SHR), telemetry blood pressure). Conditions: single oral dose 0.1 mpk P.O.
Type: in vivo, rat
Excerpt: Acute Efficacy in Spontaneously Hypertensive Rats (SHR)
Spontaneously hypertensive rats (SHR, male, Charles River) were implanted with DSI TA11PA-C40 telemetry device (Data Sciences, Inc., St. Paul, Minn.) under isoflurane or ketamine/metomidine anesthesia. The telemetry unit catheter was inserted into the descending aorta via the femoral artery and the telemetry device was implanted subcutaneously in the left flank area. Animals were allowed to recover from surgery for 14 days before the start of any studies. Blood pressure, heart rate, and activity signals from conscious, freely moving rats were recorded continuously for 30 seconds every 10 minutes. On the day prior to administration of compound, a single oral dose of vehicle (10% transcutol/20% Cremophor/70% water) was administered to all animals to establish baseline control data. The blood pressure lowering efficacy of compound (PO) or vehicle was evaluated following a single oral gavage. Data were collected as hourly averages, and changes in blood pressure were calculated by subtracting control baseline data on an hourly basis. Animals were maintained on normal diet with a 12 hour light-dark cycle.
Maximum peak decreases of systolic blood pressure (SBP) in SHR at a particular P.O. dose (mpk milligrams per kilogram) for the following representative compounds are provided.
With `CC1(C(=O)NC2CC2)C(=O)Nc2nc(-c3nn(CCC(F)(F)C(F)(F)F)c4ncc(Cl)cc34)nc(N)c21` (stereo not shown) [Example 268, 4-amino-2-[5-chloro-1-(3,3,4,4,4-pentafluorobutyl)-1H-pyrazolo[3,4-b]pyridin-3-yl]-N-cyclopropyl-5-methyl-6-oxo-6,7-dihydro-5H-pyrrolo[2,3-d]pyrimidine-5-carboxamide] the “Maximum peak decrease of systolic blood pressure (SBP) in SHR, Category” value (shortened to “Maximum peak decrease”) was “B (Category B=SBP in SHRs 25-40 mmHg)”.

Same assay, conditions: single oral dose 0.3 mpk P.O.
With `Cc1nnc(C2(C)C(=O)Nc3nc(-c4nn(CCC(F)(F)F)c5cc(Cl)ccc45)nc(N)c32)o1` (stereo not shown) [Example 198, 4-amino-2-[6-chloro-1-(3,3,3-trifluoropropyl)-1H-indazol-3-yl]-5-methyl-5-(5-methyl-1,3,4-oxadiazol-2-yl)-5,7-dihydro-6H-pyrrolo[2,3-d]pyrimidin-6-one] the “Maximum peak decrease” value was “B (Category B=SBP in SHRs 25-40 mmHg)”. In the case of `CNc1nc(-c2nn(CCCC(F)(F)F)c3ncccc23)nc2c1C(C)(C(=O)NC1CC1)C(=O)N2` (stereo not shown) [Example 264, N-cyclopropyl-5-methyl-4-(methylamino)-6-oxo-2-[1-(4,4,4-trifluorobutyl)-1H-pyrazolo[3,4-b]pyridin-3-yl]-6,7-dihydro-5H-pyrrolo[2,3-d]pyrimidine-5-carboxamide], the “Maximum peak decrease” value is reported as “B (Category B=SBP in SHRs 25-40 mmHg)”. `CNc1nc(-c2nc(CCC(F)(F)C(F)(F)F)n3ncccc23)nc2c1C(C)(C(=O)NC1CC1)C(=O)N2` (stereo not shown) [Example 260, N-cyclopropyl-5-methyl-4-(methylamino)-6-oxo-2-[7-(3,3,4,4,4-pentafluorobutyl)imidazo[1,5-b]pyridazin-5-yl]-6,7-dihydro-5H-pyrrolo[2,3-d]pyrimidine-5-carboxamide] was tested, and the “Maximum peak decrease” value was “B (Category B=SBP in SHRs 25-40 mmHg)”. In the case of `Cc1nc(C2(C)C(=O)Nc3nc(-c4nn(CCC(F)(F)C(F)(F)F)c5ncccc45)nc(N)c32)sc1C` (stereo not shown) [Example 206, 4-amino-5-(4,5-dimethyl-1,3-thiazol-2-yl)-5-methyl-2-[1-(3,3,4,4,4-pentafluorobutyl)-1H-pyrazolo[3,4-b]pyridin-3-yl]-5,7-dihydro-6H-pyrrolo[2,3-d]pyrimidin-6-one], the “Maximum peak decrease” value is reported as “C (Category C=SBP in SHRs>40 mmHg)”. With `CC1(C(=O)Nc2cccnc2)C(=O)Nc2nc(-c3nn(CCOC(F)(F)F)c4ncccc34)nc(N)c21` (stereo not shown) [Example 233, 4-amino-5-methyl-6-oxo-N-pyridin-3-yl-2-{1-[2-(trifluoromethoxy)ethyl]-1H-pyrazolo[3,4-b]pyridin-3-yl}-6,7-dihydro-5H-pyrrolo[2,3-d]pyrimidine-5-carboxamide] the “Maximum peak decrease” value was “B (Category B=SBP in SHRs 25-40 mmHg)”. With `CC1(C(=O)NC2COC2)C(=O)Nc2nc(-c3nn(CCC(F)(F)C(F)(F)F)c4ncccc34)nc(N)c21` (stereo not shown) [Example 231, 4-amino-5-methyl-N-oxetan-3-yl-6-oxo-2-[1-(3,3,4,4,4-pentafluorobutyl)-1H-pyrazolo[3,4-b]pyridin-3-yl]-6,7-dihydro-5H-pyrrolo[2,3-d]pyrimidine-5-carboxamide] the “Maximum peak decrease” value was “C (Category C=SBP in SHRs>40 mmHg)”. With `CNc1nc(-c2nn(CCC(F)(F)C(F)(F)F)c3ncccc23)nc2c1C(C)(c1nnc(C)o1)C(=O)N2` (stereo not shown) [Example 189, 5-Methyl-4-(Methylamino)-5-(5-Methyl-1,3,4-Oxadiazol-2-yl)-2-[1-(3,3,4,4,4-Pentafluorobutyl)-1H-Pyrazolo [3,4-B]Pyridin-3-yl]-5,7-Dihydro-6H-Pyrrolo[2,3-D]Pyrimidin-6-One] the “Maximum peak decrease” value was “C (Category C=SBP in SHRs>40 mmHg)”. `CC1(C(=O)NC2CC2)C(=O)Nc2nc(-c3nn(CCC(F)(F)C(F)(F)F)c4ncc(Cl)cc34)nc(N)c21` (stereo not shown) [Example 267, 4-amino-2-[5-chloro-1-(3,3,4,4,4-pentafluorobutyl)-1H-pyrazolo[3,4-b]pyridin-3-yl]-N-cyclopropyl-5-methyl-6-oxo-6,7-dihydro-5H-pyrrolo[2,3-d]pyrimidine-5-carboxamide] was tested, and the “Maximum peak decrease” value was “B (Category B=SBP in SHRs 25-40 mmHg)”. In the case of `CNC(=O)C1(C)C(=O)Nc2nc(-c3nn(CCC(F)(F)C(F)(F)F)c4cc(Cl)ccc34)nc(NC)c21` (stereo not shown) [Example 258, 2-[6-chloro-1-(3,3,4,4,4-pentafluorobutyl)-1H-indazol-3-yl]-N,5-dimethyl-4-(methylamino)-6-oxo-6,7-dihydro-5H-pyrrolo[2,3-d]pyrimidine-5-carboxamide], the “Maximum peak decrease” value is reported as “A (Category A=SBP in SHRs<25 mmHg)”. For `CNc1nc(-c2nn(CCC(F)(F)C(F)(F)F)c3ncccc23)nc2c1C(C)(c1nnc(C3CC3)o1)C(=O)N2` (stereo not shown) [Example 261, 5-(5-cyclopropyl-1,3,4-oxadiazol-2-yl)-5-methyl-4-(methylamino)-2-[1-(3,3,4,4,4-pentafluorobutyl)-1H-pyrazolo[3,4-b]pyridin-3-yl]-5,7-dihydro-6H-pyrrolo[2,3-d]pyrimidin-6-one], the “Maximum peak decrease” value was “C (Category C=SBP in SHRs>40 mmHg)”. With `CC1(C(N)=O)C(=O)Nc2nc(-c3nn(CCC(F)(F)C(F)(F)F)c4cc(F)ccc34)nc(N)c21` (stereo not shown) [Example 192, 4-amino-2-[6-fluoro-1-(3,3,4,4,4-pentafluorobutyl)-1H-indazol-3-yl]-5-methyl-6-oxo-6,7-dihydro-5H-pyrrolo[2,3-d]pyrimidine-5-carboxamide] the “Maximum peak decrease” value was “B (Category B=SBP in SHRs 25-40 mmHg)”. For `N#CC1(C2CC2)C(=O)Nc2nc(-c3nn(CCC(F)(F)C(F)(F)F)c4ncccc34)nc(N)c21` (stereo not shown) [Example 163, 4-Amino-5-Cyclopropyl-6-Oxo-2-[1-(3,3,4,4,4-Pentafluorobutyl)-1H-Pyrazolo[3,4-B]Pyridin-3-yl]-6,7-Dihydro-5H-Pyrrolo[2,3-D]Pyrimidine-5-Carbonitrile], the “Maximum peak decrease” value was “C (Category C=SBP in SHRs>40 mmHg)”. With `CC1(C(=O)NC2CC2)C(=O)Nc2nc(-c3nn(CCC(F)(F)C(F)(F)F)c4ccccc34)nc(N)c21` (stereo not shown) [Example 194, 4-amino-N-cyclopropyl-5-methyl-6-oxo-2-[1-(3,3,4,4,4-pentafluorobutyl)-1H-indazol-3-yl]-6,7-dihydro-5H-pyrrolo[2,3-d]pyrimidine-5-carboxamide] the “Maximum peak decrease” value was “C (Category C=SBP in SHRs>40 mmHg)”. `CC(C)c1nnc(C2(C)C(=O)Nc3nc(-c4nn(CCC(F)(F)C(F)(F)F)c5ncccc45)nc(N)c32)o1` (stereo not shown) [Example 213, 4-amino-5-methyl-5-[5-(1-methylethyl)-1,3,4-oxadiazol-2-yl]-2-[1-(3,3,4,4,4-pentafluorobutyl)-1H-pyrazolo[3,4-b]pyridin-3-yl]-5,7-dihydro-6H-pyrrolo[2,3-d]pyrimidin-6-one] was tested, and the “Maximum peak decrease” value was “C (Category C=SBP in SHRs>40 mmHg)”.

Same assay, conditions: single oral dose 1 mpk P.O.
`CC1(C(=O)NC2CC2)C(=O)Nc2nc(-c3nn(CCC(F)(F)F)c4nc(C5CC5)ccc34)nc(N)c21` (stereo not shown) [Example 224, 4-amino-N-cyclopropyl-2-[6-cyclopropyl-1-(3,3,3-trifluoropropyl)-1H-pyrazolo[3,4-b]pyridin-3-yl]-5-methyl-6-oxo-6,7-dihydro-5H-pyrrolo[2,3-d]pyrimidine-5-carboxamide] was tested, and the “Maximum peak decrease” value was “B (Category B=SBP in SHRs 25-40 mmHg)”.
